One compound from ChEMBL document CHEMBL6103616, “Isolation and Biosynthesis of Hyellamide, a Glycosylated N-Acyltyrosine Derivative, from the Cyanobacterium Hyella patelloides LEGE 07179” (J Nat Prod, 2025) can be followed below.

This assay concerns Bacillus subtilis. The experiment in a line: Antibacterial activity against Bacillus subtilis […] assessed as growth inhibition by agar disk diffusion method. Type of assay: functional, organism-based.

Structures are written as SMILES. Active and inactive are the calls of the source. The rule behind the calls is not given here.

As for `CCCCCCCCCCCCCC(=O)N/C=C/c1ccc(O[C@@H]2OC[C@@H](O)[C@H](OC(C)=O)[C@H]2O)cc1`, the outcome was inactive.
